We go through one molecule from patent publication US11141394B2, “Carbon dioxide external preparation” (priority 2017, dated 2021).

The test system of experiment [1] is pain and knee stiffness of rheumatism. As to the kind of experiment: Pain and knee stiffness of rheumatism improvement test. It counts as in vivo, human. Particulars: person two; oral, earlier treatment. The text has this: Therefore, pain and knee stiffness of rheumatism improvement effect of a carbon dioxide external preparation of the present invention was obvious.

The subject of experiment [2] is pain of de Quervain syndrome. As to the kind of experiment: Pain relief test (de Quervain syndrome). It is filed as in vivo, human. Conditions: person one; oral, earlier treatment. As for the experimental part:
This test was conducted by a physical therapist. subject one was a person who has been suffering from de Quervain syndrome. Oral anti-inflammatory loxoprofen sodium had shown no effect on the pain of de Quervain syndrome. They had been suffering from sharp pain in the short rollical extensor muscle and the […] of the radial aspect of the hand joint. […] Therefore, pain relief effect of a carbon dioxide external preparation of the present invention was obvious.

`CC(C(=O)O)c1ccc(CC2CCCC2=O)cc1` (centres unmarked) [loxoprofen sodium]: the “pain and knee stiffness of rheumatism” value in experiment [1] is “had not been improved”. For the same molecule, the “effect on the pain of de Quervain syndrome” value in experiment [2] was “no effect”.
